Data on ten molecules can be found in ChEMBL document CHEMBL2169821, “Design, synthesis, and evaluation of pH-dependent hydrolyzable emetine analogues as treatment for prostate cancer” (J Med Chem, 2012).

Molecules are shown by their SMILES. Activity calls are given as the source filed them. The rule behind the calls is not given here.

The nature of data set [1]: Chemical stability of the compound in phosphate buffer up to 5 days at pH 7.4 by HPLC analysis. Type of data set: physicochemical. Particulars: for Stability: buffer, pH 7.4, 120 h; for remaining at 120 h: phosphate buffer, pH 7.4, read-out: Stability.
For data set [2], the system named is LNCaP. Nature of the data set: Cytotoxicity against human LNCAP cells measured on day 7 by MTT assay. In kind it is functional, cell-based.
Data set [3] deals with PC-3. Nature of the data set: Cytotoxicity against human PC3 cells measured on day 7 by MTT assay. In kind it is functional, cell-based.
Data set [4] in a line: Prodrug activation in phosphate buffer assessed as emetine formation up to 48 hrs at pH 5.5 by HPLC analysis. Particulars: pH 5.5, 48 h.
For data set [5], the system named is Mus musculus. In words: Toxicity in Balb/c mouse assessed as lethargy at 33 mg/kg, iv qd administered as bolus for 5 days measured within 48 hrs. Type of data set: organism-based. More on the design: dose 33 mg/kg, route intravenous. Particulars: in vivo.
The subject of data set [6] is Mus musculus. In words: Toxicity in Balb/c mouse assessed as mortality at 33 mg/kg, iv qd administered as bolus for 5 days measured up to 5 days. Type of data set: organism-based. More on the design: dose 33 mg/kg, route intravenous. The following applies: in vivo, 120 h.
The test system of data set [7] is Mus musculus. In words: Toxicity in Balb/c mouse assessed as change in body weight at 100 mg/kg, iv qd administered as bolus for 5 days measured within 48 hrs relative to control. In kind it is organism-based. More on the design: dose 100 mg/kg, route intravenous. The following applies: in vivo.
Data set [8] has as its system Mus musculus. Nature of the data set: Toxicity in Balb/c mouse assessed as weight loss at 33 mg/kg, iv qd administered as bolus for 5 days measured within 48 hrs relative to untreated control. Type of data set: organism-based. More on the design: dose 33 mg/kg, route intravenous. Particulars: in vivo.
Data set [9] relates to Mus musculus. Nature of the data set: Toxicity in Balb/c mouse assessed as weight loss at 33 mg/kg, iv qd administered as bolus for 5 days measured within 24 hrs (reference value: 1.7%). In kind it is organism-based. Particulars: in vivo. Also on record: dose 33 mg/kg, route intravenous.
Data set [10] concerns PC-3. Nature of the data set: Ratio of compound IC50 to emetine IC50 for human PC3 cells measured on day 5 at pH <7 by MTT assay. Type of data set: functional. (Tetrazolium assays rely on reduction of a dye to a coloured formazan, in cell work by metabolically active cells.)
For data set [11], the system named is PC-3. Nature of the data set: Ratio of compound IC50 to emetine IC50 for human PC3 cells measured on day 5 at pH 7.4 by MTT assay. In kind it is functional.
For data set [12], the system named is Mus musculus. In words: Toxicity in Balb/c mouse assessed as adverse effects at 100 mg/kg, iv qd administered as bolus for 5 days measured up to 3 weeks. Type of data set: organism-based. Also on record: dose 100 mg/kg, route intravenous. The following applies: in vivo.
The test system of data set [13] is Mus musculus. In words: Toxicity in Balb/c mouse assessed as adverse effects at 100 mg/kg, iv qd administered as bolus for 5 days. In kind it is organism-based. More on the design: dose 100 mg/kg, route intravenous. The following applies: in vivo, 120 h.
Data set [14] concerns PC-3. Nature of the data set: Cytotoxicity against human PC3 cells measured on day 5 by MTT assay. Type of data set: functional, cell-based.
Data set [15] has as its system DU-145. Nature of the data set: Cytotoxicity against human DU145 cells measured on day 3 by MTT assay. In kind it is functional, cell-based.
In data set [16] the test system is Mus musculus. Nature of the data set: Toxicity in Balb/c mouse assessed as mortality at 100 mg/kg, iv administered as bolus measured within 48 hrs. Type of data set: organism-based. Particulars: in vivo. More on the design: dose 100 mg/kg, route intravenous.
The subject of data set [17] is LNCaP. In words: Cytotoxicity against human LNCAP cells measured on day 3 by MTT assay. Type of data set: functional, cell-based.
Data set [18] relates to LNCaP. Nature of the data set: Cytotoxicity against human LNCAP cells measured on day 5 by MTT assay. Type of data set: functional, cell-based.
Data set [19] concerns PC-3. In words: Cytotoxicity against human PC3 cells measured on day 3 by MTT assay. Type of data set: functional, cell-based.
Data set [20] relates to PC-3. Nature of the data set: Cytotoxicity against human PC3 cells by MTT assay. Particulars: TDE = time-dependent effect. In kind it is functional, cell-based.
The test system of data set [21] is DU-145. In words: Cytotoxicity against human DU145 cells by MTT assay. In kind it is functional, cell-based. The following applies: TDE = time-dependent effect.
Data set [22] has as its system DU-145. In words: Cytotoxicity against human DU145 cells measured on day 5 by MTT assay. In kind it is functional, cell-based.
The test system of data set [23] is DU-145. In words: Cytotoxicity against human DU145 cells measured on day 7 by MTT assay. Type of data set: functional, cell-based.
The test system of data set [24] is LNCaP. Nature of the data set: Cytotoxicity against human LNCAP cells by MTT assay. Particulars: TDE = time-dependent effect. In kind it is functional, cell-based.
The nature of data set [25]: Chemical stability of the compound in phosphate buffer up to 48 hrs at pH 5.5 by HPLC analysis. Particulars: pH 5.5, 48 h. In kind it is physicochemical.
The nature of data set [26]: Chemical stability of the compound in phosphate buffer up to 48 hrs at pH 6.5 by HPLC analysis. In kind it is physicochemical. The following applies: pH 6.5, 48 h.

What is called IC50 is the concentration at which inhibition is half-maximal. Read a high IC50 as weaker potency in that assay.

For the molecule `CC[C@H]1CN2CCc3cc(OC)c(OC)cc3[C@@H]2C[C@@H]1C[C@@H]1c2cc(OC)c(OC)cc2CCN1C(=O)/C=C(/C)C(=O)O`, the Stability in [1] is given as 100%. Moreover, the IC50 is 368 nM in the data set on LNCaP [2] (lncap) and 378 nM in the data set with PC-3 [3] (pc-3). For the same molecule, in data set [4], the Drug metabolism entry was “Active”.
As for `CC[C@H]1CN2CCc3cc(OC)c(OC)cc3[C@@H]2C[C@@H]1C[C@@H]1c2cc(OC)c(OC)cc2CCN1C(=S)[S-].[Na+]`, in data set [1], the remaining at 120 h amounted to 100%. The Activity result with Mus musculus [5] is “Non-toxic”; in the data set on Mus musculus [6], “Non-toxic”; with Mus musculus [7], “Non-toxic”; with Mus musculus [8], 0.67%; with Mus musculus [9], 2%; with Mus musculus [12], “Non-toxic”. In the data set with Mus musculus [13], the Activity result is recorded as “Non-toxic”. For the same molecule, the “Ratio IC50” value in the data set on PC-3 [10] is 1.9; in the data set on PC-3 [11] it was 16.5. For the same molecule, the concentration for half-maximal inhibition (IC50) with LNCaP [2] (Homo sapiens, LNCaP, 168 h) was found to be 79 nM; with PC-3 [3] (Homo sapiens, PC-3, 168 h), 87 nM. Besides, the outcome with PC-3 [14] was Active.
With `CC[C@H]1CN2CCc3cc(OC)c(OC)cc3[C@@H]2C[C@@H]1C[C@@H]1c2cc(OC)c(OC)cc2CCN1C(=O)/C=C(/C)C(=O)[O-].[Na+]`, the remaining at 120 h in [1] was found to be 100%. The Activity result in the data set with Mus musculus [7], in the data set on Mus musculus [12] and with Mus musculus [13] was “Non-toxic” in each case. Also, the figures for the “Ratio IC50” value in the data set on PC-3 [10] and in the data set with PC-3 [11] were 2.5 and 16.8, respectively. In addition, the IC50 with LNCaP [2] (Homo sapiens, LNCaP, 168 h) was determined as 458 nM; in the data set with PC-3 [3] (Homo sapiens, PC-3, 168 h) it was 428 nM. Further, the Drug metabolism entry in data set [4] is reported as “Active”.
As to `CC[C@H]1CN2CCc3cc(OC)c(OC)cc3[C@@H]2C[C@@H]1C[C@H]1NCCc2cc(OC)c(OC)cc21.Cl.Cl` [EMETINE HYDROCHLORIDE], the Activity entry in the data set with DU-145 [15] is “Dose-dependent effect”; in the data set with Mus musculus [16] it was “Toxic”; in the data set on Mus musculus [5], “Toxic”; in the data set with LNCaP [17], “Dose-dependent effect”; in the data set with LNCaP [18], “Dose-dependent effect”; in the data set on Mus musculus [6], “Non-toxic”. Moreover, the Activity was 3.6% with Mus musculus [8]; 4.5% with Mus musculus [9]; “Dose-dependent effect” in the data set on PC-3 [19]; “Dose-dependent effect” in the data set on LNCaP [2]; “tde” in the data set with PC-3 [20]; “tde” in the data set with DU-145 [21]. Also, the Activity entry in the data set with PC-3 [3] was “Dose-dependent effect”; in the data set with PC-3 [14], “Dose-dependent effect”; in the data set on DU-145 [22] it was “Dose-dependent effect”; with DU-145 [23], “Dose-dependent effect”; with LNCaP [24], “tde”. In addition, the IC50 amounted to 32.9 nM in the data set on DU-145 [15] (DU-145, 72 h); 37.9 nM in the data set with LNCaP [17] (72 h); 35.1 nM with PC-3 [19] (PC-3, 72 h); 31.6 nM in the data set with LNCaP [2] (Homo sapiens, LNCaP, 168 h); 29.4 nM with PC-3 [3] (Homo sapiens, PC-3, 168 h); 26.8 nM in the data set with PC-3 [14] (PC-3, 120 h). The IC50 in the data set on DU-145 [22] (DU-145, 120 h) came to 25.3 nM; with DU-145 [23] (DU-145, 168 h), 23.7 nM.
`CC[C@H]1CN2CCc3cc(OC)c(OC)cc3[C@@H]2C[C@@H]1C[C@@H]1c2cc(OC)c(OC)cc2CCN1S(=O)(=O)c1ccc(Cl)cc1`: the Stability result in data set [25] and in data set [26] was “Stable” in each case. In addition, the outcome with PC-3 [19] and in the data set on PC-3 [14] was Active. In addition, the IC50 in the data set on LNCaP [2] (Homo sapiens, LNCaP, 168 h) amounted to 2690 nM; in the data set on PC-3 [3] (Homo sapiens, PC-3, 168 h), 4210 nM.
Molecule `CC[C@H]1CN2CCc3cc(OC)c(OC)cc3[C@@H]2C[C@@H]1C[C@@H]1c2cc(OC)c(OC)cc2CCN1C(=O)/C=C\C(=O)O` displayed a Stability in [1] of 100%. The results for the IC50 in the data set on LNCaP [2] (lncap) and in the data set with PC-3 [3] (pc-3) were 6780 nM and 5040 nM, respectively. In addition, the Drug metabolism entry in data set [4] was “Active”.
As for `CC[C@H]1CN2CCc3cc(OC)c(OC)cc3[C@@H]2C[C@@H]1C[C@@H]1c2cc(OC)c(OC)cc2CCN1C(=O)OCc1ccccc1`, the Stability result in [25] and in data set [26] was “Stable” each time. Besides, the outcome with PC-3 [19] and in the data set on PC-3 [14] was Active. The IC50 in the data set with LNCaP [2] (Homo sapiens, LNCaP, 168 h) was 3240 nM; with PC-3 [3] (Homo sapiens, PC-3, 168 h), 6070 nM.
Take `CC[C@H]1CN2CCc3cc(OC)c(OC)cc3[C@@H]2C[C@@H]1C[C@@H]1c2cc(OC)c(OC)cc2CCN1C(=O)/C=C\C(=O)[O-].[Na+]`: the remaining at 120 h in [1] was 100%. In addition, the IC50 turned out to be 8900 nM in the data set with LNCaP [2] (Homo sapiens, LNCaP, 168 h) and 7710 nM with PC-3 [3] (Homo sapiens, PC-3, 168 h). For the same molecule, the Drug metabolism result in data set [4] was “Active”.
As for `CC[C@H]1CN2CCc3cc(OC)c(OC)cc3[C@@H]2C[C@@H]1C[C@@H]1c2cc(OC)c(OC)cc2CCN1C(=O)/C=C(/CC(=O)[O-])C(=O)[O-].[Na+].[Na+]`, the remaining at 120 h in data set [1] stood at 100%. For the same molecule, the outcome with PC-3 [19] and in the data set on PC-3 [14] was Active. In addition, the IC50 in the data set on LNCaP [2] (Homo sapiens, LNCaP, 168 h) worked out at 5460 nM; in the data set on PC-3 [3] (Homo sapiens, PC-3, 168 h) it was 2890 nM. In [4], the Drug metabolism result is reported as “Active”.
In the case of `CC[C@H]1CN2CCc3cc(OC)c(OC)cc3[C@@H]2C[C@@H]1C[C@@H]1c2cc(OC)c(OC)cc2CCN1C(=O)NCc1ccccc1`, the Stability entry in [25] and in [26] was “Stable” throughout. Moreover, the outcome in the data set on PC-3 [19] and with PC-3 [14] was Active. For the same molecule, the IC50 is 2120 nM in the data set with LNCaP [2] (Homo sapiens, LNCaP, 168 h) and 7610 nM in the data set on PC-3 [3] (Homo sapiens, PC-3, 168 h).
